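In this assay, cells in 96-well plates receive the compound at five concentrations for 48 hours. Endpoints are linearly interpolated between the surrounding concentrations. Here, GI50 denotes the concentration required for 50% inhibition of growth. At the TGI there is no net growth.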
Key:
Assay in all cases: NCI tumour cell line growth inhibition, 48 h
NCI-H226 lung = tested on: NCI-H226 lung
OVCAR-8 ovarian = tested on: OVCAR-8 ovarian
EKVX NSCLC = tested on: EKVX NSCLC
HCC-2998 colon = tested on: HCC-2998 colon
NCI-H23 lung = tested on: NCI-H23 lung
SF-295 CNS = tested on: SF-295 CNS
LOX IMVI melanoma = tested on: LOX IMVI melanoma
UACC-62 melanoma = tested on: UACC-62 melanoma
U251 CNS = tested on: U251 CNS
M19-MEL melanoma = tested on: M19-MEL melanoma

| Compound | TGI (NCI-H226 lung) [µM] | TGI (OVCAR-8 ovarian) [µM] | TGI (EKVX NSCLC) [µM] | TGI (HCC-2998 colon) [µM] | TGI (NCI-H23 lung) [µM] | TGI (SF-295 CNS) [µM] | TGI (LOX IMVI melanoma) [µM] | TGI (UACC-62 melanoma) [µM] | TGI (U251 CNS) [µM] | GI50 (NCI-H226 lung) [µM] | GI50 (OVCAR-8 ovarian) [µM] | GI50 (EKVX NSCLC) [µM] | GI50 (HCC-2998 colon) [µM] | GI50 (NCI-H23 lung) [µM] | GI50 (SF-295 CNS) [µM] | GI50 (LOX IMVI melanoma) [µM] | GI50 (UACC-62 melanoma) [µM] | GI50 (U251 CNS) [µM] | TGI (M19-MEL melanoma) [µM] | GI50 (M19-MEL melanoma) [µM] |
| --- | --- | --- | --- | --- | --- | --- | --- | --- | --- | --- | --- | --- | --- | --- | --- | --- | --- | --- | --- | --- |
| O=C1NC2(CN3CCC2CC3)C(=O)N1CN(Cc1ccccc1)c1ccccc1 (stereo not drawn) | > 100 | > 100 | > 100 | > 100 | > 100 | > 100 | > 100 | > 100 | > 100 | – | – | – | – | – | – | – | – | – | – | – |
| c1nnc(NCNc2nncs2)s1 | > 100 | > 100 | > 100 | 84.2 | > 100 | > 100 | > 100 | > 100 | > 100 | – | – | – | – | – | – | – | – | – | – | – |
| Cc1cc(N/N=C/c2nc(-c3ccc(Cl)cc3)oc2C)c2cc(Cl)ccc2n1 | 38.3 | 5.06 | 28.3 | 7.32 | 19.1 | 22.6 | 4.18 | 3.54 | 3.37 | 17 | 2.05 | 14.6 | 2.86 | 5.34 | 10.2 | 2.01 | 1.8 | 1.78 | – | – |
| Cc1nn(-c2ccccc2)c(-c2ccccc2[N+](=O)[O-])c1CC#N | – | > 100 | > 100 | > 100 | > 100 | > 100 | > 100 | > 100 | – | – | – | – | – | – | – | – | – | – | > 100 | – |
| O=C1CCCN1CC#CCN1CCCC1 | > 100 | > 100 | > 100 | > 100 | > 100 | > 100 | > 100 | > 100 | > 100 | > 100 | > 100 | > 100 | > 100 | > 100 | > 100 | > 100 | > 100 | > 100 | – | – |
| COc1ccc(CN2c3ccccc3CCc3ccccc32)cc1F | > 100 | > 100 | > 100 | > 100 | > 100 | > 100 | > 100 | > 100 | > 100 | 2.43 | 0.88 | 1.55 | 8.9 | 0.672 | 0.333 | 0.725 | 0.804 | 0.496 | – | – |
| O=C([CH-]C(=O)C(F)(F)F)c1ccccc1.O=C([CH-]C(=O)C(F)(F)F)c1ccccc1.O=C([CH-]C(=O)C(F)(F)F)c1ccccc1.O=C([CH-]C(=O)C(F)(F)F)c1ccccc1.[Eu+3].c1ccncc1 | 79 | > 100 | 58.6 | – | 19.5 | 31 | 21 | 63.3 | > 100 | 15.6 | 6.58 | 11.4 | – | 3.7 | 3.02 | 5.78 | 6.67 | 5.02 | 62.8 | 10 |
| O=C1c2ccccc2-n2c1nc1ccccc1c2=O | > 80.1 | > 82.4 | 35.3 | > 90.4 | 33.8 | 18.8 | 25.1 | 14.5 | 37.5 | – | – | – | – | – | – | – | – | – | – | – |
| Cc1cc2c(=O)c3ccccc3[nH]c2c(C(=O)O)c1C | – | > 100 | > 100 | > 100 | > 100 | > 100 | – | > 100 | > 100 | – | – | – | – | – | – | – | – | – | > 100 | – |
| Cc1nc(C(N)=S)sc1C(=O)C/C(=N/N)C(=O)Nc1cccc(Cl)c1C | > 100 | > 100 | > 100 | > 100 | > 100 | > 100 | > 100 | > 100 | > 100 | – | – | – | – | – | – | – | – | – | – | – |
| CC1CCN(CC(=O)N2c3ccccc3Sc3cc4ccccc4cc32)CC1 | > 100 | > 100 | > 100 | > 100 | > 100 | > 100 | > 100 | > 100 | > 100 | – | – | – | – | – | – | – | – | – | – | – |
| COc1ccc(/C=C2\C(=O)N(C(=O)Cc3ccccc3)N=C2C)cc1OC | > 100 | > 100 | > 100 | > 100 | > 100 | > 100 | > 100 | – | – | – | – | – | – | – | – | – | – | – | > 100 | – |
| CCOC(=O)CC1NC(=O)CS1 (stereo not drawn) | 48.1 | > 100 | > 100 | > 100 | > 100 | > 100 | – | > 100 | > 100 | – | – | – | – | – | – | – | – | – | > 100 | – |
| CCN(CCNc1ccc(C)c2sc3ccccc3c(=O)c12)CC(C)(C)O | 33 | > 71.6 | > 66.7 | 27.3 | 41.8 | 20.2 | 18.9 | 9.48 | 19.4 | 15.2 | 17.8 | 20.1 | 8.81 | 15.4 | 3.77 | 6.14 | 2.9 | 5.67 | – | – |
| BrC1(Br)C2/C=C\CCCCC21 (stereo not drawn) | > 100 | > 100 | > 100 | > 100 | > 100 | > 100 | > 100 | – | > 100 | – | – | – | – | – | – | – | – | – | > 100 | – |
| COC1CC(OC(=O)c2ccccc2)C(OC(=O)c2ccccc2)C(C)O1 (stereo not drawn) | > 100 | > 100 | > 100 | > 100 | > 100 | > 100 | > 100 | > 100 | > 100 | – | – | – | – | – | – | – | – | – | – | – |
| O=[N+]([O-])c1nccn1COCCBr | > 100 | > 100 | > 100 | – | > 100 | > 100 | > 100 | > 100 | > 100 | – | – | – | – | – | – | – | – | – | > 100 | – |
| COc1cc(S(C)(=O)=O)ccc1Nc1nc2ccc(-c3ccc(NC(=O)[C@H](C)c4ccc(F)cc4)cc3)cn2n1 | > 100 | > 100 | > 100 | > 100 | > 100 | > 100 | > 100 | > 100 | > 100 | > 100 | 9.36 | > 100 | > 100 | > 100 | > 100 | 10.6 | 75.6 | 35.9 | – | – |
